The values below come from patent publication US5039528A, “EAA antagonists as anti-emetic drugs” (priority 1989, dated 1991).

Data set [1] concerns NMDA receptors. Particulars: Table 1, *: not screened in chick retina assay; estimated from other reported electrophysiological data; cited from earlier work.
For data set [2], the system named is KA receptors. To be noted: Table 1, *: not screened in chick retina assay; estimated from other reported electrophysiological data; cited from earlier work.
The conditions of data set [3]: cited from earlier work; for BBB penetrability: Table 1; for penetration of blood brain barriers: statement in text.
Data set [4] deals with Quis receptors. To be noted: Table 1, *: not screened in chick retina assay; estimated from other reported electrophysiological data; cited from earlier work.
Data set [5] deals with area postrema-CVO neurons. Particulars: cited from earlier work; for emesis at a toxic dose: dogs and monkeys; for neurotoxic effects: subcutaneous, immature animals of various species including monkeys, CVO brain regions.
A further data set has as its system patients. Particulars: high blood concentrations, humans; cited from earlier work.
Data set [6] concerns dogs. As to the kind of experiment: Emesis induction by glutamate in dogs; blockage by D-AP5 or Kyn. The data set is classed as in vivo, dog.
Data set [7] relates to dogs. As to the kind of experiment: Emesis induction by KA in dogs; blockage by Kyn. The data set is classed as in vivo, dog. The method, then:
Kainic acid (KA), an EAA agonist which triggers the KA class of non-NMDA receptors, was administered to dogs at dosages in the vicinity of 0.5 mg/kg SC.

The test system of data set [8] is motion sickness or vertigo. Particulars: in vivo; cited from earlier work.
Data set [9] has as its system Quis receptors. Kind of data set: Chick retina assay: protection against excitotoxic action of Quis. The data set is classed as cell-based. Particulars: Table 1, normalized to kynurenic acid vs KA = 1. From the text:
(§1) Antagonist potencies were established in a chick retina assay which has
(§2) (NMDA, KA and Quis) for excitotoxic properties and EAA antagonists for
(§3) potency in protecting the retina against the excitotoxic action of such
(§4) agonists. The concentration of antagonist required to totally prevent the
(§5) toxic action of an agonist was used to compare antagonists for potency.
(§6) For purposes of illustration, the data were normalized by assigning a
(§7) EAA antagonist properties have been described in each category. Antagonis
(§8) potencies were established in a chick retina assay which has been used by
(§9) Quis) for excitotoxic properties and EAA antagonists for potency in
(§10) protecting the retina against the excitotoxic action of such agonists.
(§11) concentration of antagonist required to totally prevent the toxic action
(§12) of an agonist was used to compare antagonists for potency. For purposes o
(§13) to kynurenic acid vs KA (see table 1) and all other values were adjusted

For data set [10], the system named is KA receptors. Kind of data set: Chick retina assay: protection against excitotoxic action of KA. The data set is classed as cell-based. To be noted: Table 1, normalized to kynurenic acid vs KA = 1.
Text: as §1, §2, §3, §4, §5, §6, §7, §8, §9, §10, §11, §12, §13

A further data set deals with ferrets. As to the kind of experiment: Emesis induction by cisplatin (8 mg/kg IV) in ferrets; blockage by Kyn. To be noted: cisplatin 8 mg/kg IV, ferrets. The format is in vivo, ferret. The method, then: Four ferrets (a control group) received 8 mg/kg IV cisplatin, a chemotherapeutic drug which has a powerful emetic effect.
Nine ferrets were treated with cisplatin (8 mg/kg IV), and with Kyn, either by bolus (one-shot) injection using 150 mg/kg, or by continuous IV infusion using 50 mg/kg/hour.

Data set [11] relates to EAA receptors (NMDA, KA, Quis). To be noted: cited from earlier work.
Data set [12] concerns NMDA receptors. As to the kind of experiment: Chick retina assay: protection against excitotoxic action of NMDA. The data set is classed as cell-based.
Text: as §1, §2, §3, §4, §5, §6, §7, §8, §9, §10, §11, §12, §13

Data set [13] deals with emesis associated with cancer chemotherapy. Particulars: in vivo; cited from earlier work.
Another data set concerns 5-HT M receptors. To be noted: cited from earlier work.
A further data set has as its system neurons. Particulars: Ser. No. 424,548; cited from earlier work.
[14] abbreviates: Kyn 50 mg/kg/hour continuous IV infusion.

Read-outs that look alike come from different tables or passages of the source.

Regarding `C/C(=C\C(N)C(=O)O)CP(=O)(O)O` (stereo not shown) [CGP 37849], the “EAA antagonist potency vs NMDA” value in the data set with NMDA receptors [1] is listed as 200. Further, in the data set with KA receptors [2], the “EAA antagonist potency vs KA” value is 0. Further, in [3], the BBB penetrability entry was “moderate”. Also, the “EAA antagonist potency vs Quis” value with Quis receptors [4] was 0.

With `O=C(O)[C@@H]1C[C@H](CP(=O)(O)O)CCN1` [CGS 19755], the “EAA antagonist potency vs NMDA” value in the data set on NMDA receptors [1] is listed as 200. Also, in the data set on KA receptors [2], the “EAA antagonist potency vs KA” value is 0. Besides, the “EAA antagonist potency vs Quis” value in the data set on Quis receptors [4] is listed as 0.

Regarding `O=C(O)C1CN(C/C=C/P(=O)(O)O)CCN1` (stereo not shown) [CPP-ene], in the data set on NMDA receptors [1], the “EAA antagonist potency vs NMDA” value is reported as 200. Besides, the “EAA antagonist potency vs KA” value with KA receptors [2] is reported as 0. Besides, in [3], the BBB penetrability result was “moderate” and the “penetration of blood brain barriers” value is “do not readily penetrate blood brain barriers”. In addition, the “EAA antagonist potency vs Quis” value in the data set on Quis receptors [4] is 0.

Turning to `O=C(O)C1CN(CCCP(=O)(O)O)CCN1` (stereo not shown) [CPP], in the data set on NMDA receptors [1], the “EAA antagonist potency vs NMDA” value is on record as 200. Besides, the “EAA antagonist potency vs KA” value with KA receptors [2] was 0. Further, in the data set on Quis receptors [4], the “EAA antagonist potency vs Quis” value is 0.

With `N[C@@H](CCC(=O)O)C(=O)O` [Glutamate, glutamate], in data set [5], the “emesis at a toxic dose” value is on record as “first causes the animal to vomit before continued excitatory stimulation destroys the area postrema-CVO neurons” and the neurotoxic effects entry is reported as “powerful neurotoxic effects”. The “penetration of blood brain barriers” value in data set [3] is “does not penetrate the BBB”. Also, the emetic properties result in the data set with patients is given as “induce vomiting”. Further, the “emetic response to glutamate” value in the data set with dogs [6] (150 mg/kg IV) is on record as “An emetic response was observed in all animals”.

Consider `C=C(C)[C@H]1CN[C@H](C(=O)O)[C@H]1CC(=O)O` [KA, kainic acid], for which the “emetic response to KA” value in the data set on dogs [7] (in the vicinity of 0.5 mg/kg SC, without Kyn) is “All of the animals suffered an emetic response”.

Turning to `N[C@@H](CC(=O)O)C(=O)O` [aspartate], in data set [5], the “emesis at a toxic dose” value was “first causes the animal to vomit before continued excitatory stimulation destroys the area postrema-CVO neurons” and the neurotoxic effects result is “powerful neurotoxic effects”. Moreover, in the data set with patients, the emetic properties result was “induce vomiting”.

Regarding `CN(C)CCOC(c1ccccc1)c1ccccc1` [dimenhydrinate], in data set [8], the “effect against motion sickness or vertigo” value is given as “relatively ineffective unless taken before a boat or airplane ride or other motion begins, or before the onset of vertigo”; the “effect on nausea and vomiting caused by other factors” value is reported as “not effective”.

As for `O=C(O)c1cc(=O)c2ccccc2[nH]1` [kynurenic acid], in the data set on Quis receptors [9], the “EAA antagonist potency vs Quis” value is listed as 1. The “EAA antagonist potency vs KA” value in the data set on KA receptors [10] was determined as 1. For the same compound, in the data set with ferrets (setting [14]), the “behavior/malaise after cisplatin, treated by continuous infusion” value was “displayed playful behavior, sought and ate food, did not appear ill”; the “vomiting after cisplatin, treated by continuous infusion” value is reported as “did not vomit”. For the same compound, in the data set on ferrets (Kyn 150 mg/kg bolus), the “appeared as ill as the control animals, treated by bolus injection” value was “only one appeared to be as ill as the control animals”; the “vomiting and malaise after cisplatin, treated by bolus injection” value was “Three of the ferrets treated by bolus injection vomited once or twice and showed transient malaise”. Also, the “blockage of KA-induced emesis” value in the data set on dogs [7] (50 mg/kg SC) was “emesis was blocked”. In addition, the “EAA receptor subtype order of blockade” value in data set [11] is recorded as “NMDA>KA>Quis”. In the data set on NMDA receptors [12] (Table 1, normalized to kynurenic acid vs KA = 1), the “EAA antagonist potency vs NMDA” value came out at 4. Also, the “blockage of glutamate-induced emesis” value with dogs [6] (Kyn 75 mg/kg SC) is on record as “could be blocked”.

With `CCN(CC)CCNC(=O)c1cc(Cl)c(N)cc1OC` [metoclopramide], the “anti-emetic effect in cancer chemotherapy” value in [13] is recorded as “only partially effective”. In addition, in the data set on 5-HT M receptors, the “5-HT M receptor antagonism” value is “only a weak 5-HT M receptor antagonist”.

Turning to `OC(CCN1CCCC1)(c1ccccc1)C1CCCCC1` (stereo not shown) [procyclidine], in the data set on neurons, the “reduction of the neurotoxicity of NMDA antagonists that penetrate the BBB” value is “effective in reducing the neurotoxicity”. In the data set with NMDA receptors [12] (Table 2, normalized to kynurenic acid vs KA = 1), the “EAA antagonist potency vs NMDA” value turned out to be 67.

In the case of `CN1[C@@H]2C[C@@H](OC(=O)[C@H](CO)c3ccccc3)C[C@H]1[C@@H]1O[C@@H]12` [scopolamine], in [8], the “effect against motion sickness or vertigo” value is given as “relatively ineffective unless taken before a boat or airplane ride or other motion begins, or before the onset of vertigo”; the “effect on nausea and vomiting caused by other factors” value is “not effective”.

`OC(CCN1CCCCC1)(c1ccccc1)C1CCCCC1` (stereo not shown) [trihexyphenidyl]: in the data set with neurons, the “reduction of the neurotoxicity of NMDA antagonists that penetrate the BBB” value is “effective in reducing the neurotoxicity”.
